Source: paper PMC5947527 (Chemical Science, 2015)
Entries after “also recorded” stand apart in the source; their conditions may differ. Non-standard residues stand in square brackets, D forms with d. Residues, ends and D or L forms follow the SMILES beside them. *: point of attachment. Decanoyl(3,6,9-trioxa) = COCCOCCOCC(=O)*; NBD = O=[N+]([O-])c1ccc(*)c2nonc12; dNle = CCCC[C@@H](N)C(=O)O; Nle = CCCC[C@H](N)C(=O)O; AEEA = NCCOCCOCC(=O)O; Ahx = NCCCCCC(=O)O

System: not listed separately
Assay: Stability in ARDS bronchoalveolar lavage fluid (MALDI-TOF MS)
Type: in vitro ADME, human
Conditions: human ARDS BALF pooled from three patients vs PBS, 5 and 30 min, MALDI-TOF MS
Excerpt: To determine the ability of UBI-3 to image bacteria in the continued presence of a complex inflammatory environment, bacteria were labelled with UBI-3 in the presence of broncho-alveolar lavage fluid (BALF) retrieved from ventilated ICU patients with Acute Respiratory Distress Syndrome (ARDS). ARDS BALF was utilised as ARDS is a severe life threatening pulmonary syndrome, characterized by a massive proteolytic and oxidative inflammatory environment within the distal alveolar region.[14] […] To design out susceptible amino acid cleavage points, a number of modifications were made (Table 1) and the functional consequences assessed. The chemical approaches pursued to improve resistance to degradation included replacing amino acids at the cleavage positions with non-natural amino acids such as N-methyl or D-amino acids,[15] and cyclisation of the peptide,[16] which could have the added benefit of enhancing affinity towards bacterial membrane.[17]
The Arg–Arg bonds were identified as the prominent position of degradation (Fig. 5) and Compounds UBI-4–9 (Table 1) were synthesised with a variety of substitutions around the degradation sites. The susceptible peptide bonds at P1–P2 and P7–P8 were blocked using N-MeArg (UBI-4), and to further mask these positions, a long polyethylene glycol (PEG) chain and/or a D-amino acid were positioned at the carboxylic and/or amino termini (UBI-5–7).
We hypothesized that cyclisation of the sequence would allow for greater stability and also improve bacterial affinity and therefore cyclic variants of UBI-3 were synthesized (UBI-10 and UBI-11), which were both found to be stable in BALF for 5 minutes (Fig. 7 and S3 ESI ^†). […] However, these studies also highlighted the degradation of UBI-10 at 10 minutes, guiding the temporal constraints of Smartprobe delivery and optical imaging.
Fig. 7 UBI-10 remains stable in ARDS BALF at 5 minutes. (A) Structure of UBI-10 with breakdown products in ARDS BALF. […] TEXT PRINTED IN THE PICTURE: UBI-10: Molecular Weight: 2118.41 | Fragment A: Molecular Weight: 1923.18 | Fragment B: Molecular Weight: 1980.23 DOUBTS OF THE COPYIST ABOUT THIS PICTURE: UBI-10, Molecular Weight: very small print, 2118.41 is the best reading; the digits 8 and 4 are uncertain / Fragment A, Molecular Weight: very small print, 1923.18 is the best reading; the digits 9, 3 and 8 are uncertain / Fragment B, Molecular Weight: very small print, 1980.23 is the best reading; the digits 9, 8 and 3 are uncertain […]
Supplementary Information
A Labelled-Ubiquicidin Antimicrobial Peptide for Immediate In Situ Optical Detection of Live Bacteria in Human Alveolar Lung Tissue
Ahsan R Akram, Nicolaos Avlonitis, Annamaria Lilienkampf, Ana M Perez-Lopez, Neil McDonald, Sunay V Chankeshwara, Emma Scholefield, Christopher Haslett, Mark Bradley & Kevin Dhaliwal.
Figure S1: MALDI-TOF MS spectra for a stability study of UBI-3 in PBS and in ARDS BALF […]
Figure S2. MALDI-TOF MS spectra of modified analogues UBI-4 to UBI-9 in Phosphate Buffered Saline and ARDS BALF over a period of 5 and 30min.
Figure S3: MALDI-TOF MS spectra of UBI-11 in Phosphate Buffered Saline vs ARDS BALF […]
Figure S4. Quantified fluorescence of confocal microscopy images of the compounds UBI-3, UBI-5 and UBI-10 on three bacteria and fluorescence retention following a PBS wash.
Figure S5: Fibered confocal fluorescence microscopy imaging of human lung and Calcein AM stained Methicillin sensitive S. aureus.
Experimental Details including Tables M1-4, Figure M1 and HPLC Chromatograms.
(also on this page, place not known: Electronic Supplementary Material (ESI) for Chemical Science. This journal is © The Royal Society of Chemistry 2015)
(1 picture or pasted object on this page, not shown here) […]
BALF Retrieval: Bronchoalveolar lavage was performed in the Intensive Care Unit (ICU), as previously described. S5 Pooled samples from three patients were used for stability assays. […]
Exposure to 488 nm light was limited to 5% […]

Row | Compound | stability in ARDS BALF
1 | CCCC[C@H](NC(=O)[C@H](CCCNC(=N)N)NC(=O)[C@H](CCCNC(=N)N)NC(=O)[C@H](CCCCN)NC(=O)[C@H](C)NC(=O)[C@H](CCCNC(=N)N)NC(=O)CNC(=O)[C@@H](NC(=O)CCCCCNc1ccc([N+](=O)[O-])c2nonc12)[C@@H](C)O)C(=O)N[C@@H](CCC(N)=O)C(=O)N[C@@H](Cc1ccc(O)cc1)C(=O)N[C@@H](CC(N)=O)C(=O)N[C@@H](CCCNC(=N)N)C(=O)N[C@@H](CCCNC(=N)N)C(=O)NCCOCCOCC(=O)NCCOCCOCC(N)=O [UBI-7] ({NBD-Ahx}-TGRAKRR[Nle]QYNRR[AEEA][AEEA]-NH2) | did not improve stability in ARDS BALF; also recorded: Unstable in ARDS BALF at 30 minutes

System: methicillin-sensitive Staphylococcus aureus
Assay: Confocal labelling of MSSA with quantified fluorescence
Type: cell-based
Conditions: MSSA, 10 μM, fluorescence normalized to UBI-3, mean ± SEM, n ≥ 3
Description: Fig. 6 Confocal Images of compounds UBI-3 to 9 with quantified fluorescence. Panels show methicillin-sensitive Staphylococcus aureus incubated with UBI-3 to 9 (all 10 μM) with quantification of bacterial fluorescence normalized to UBI-3 (bars represent mean (±SEM), n ≥ 3, ns = not significant, *** = p < 0.001, * = p < 0.05, scale bar = 10 μm).
Fig. 8 Confocal images and quantification of cyclic variants when compared to UBI-3. Panels show methicillin-sensitive Staphylococcus aureus incubated with cyclic UBI compounds (all 10 μM) with quantification of bacterial fluorescence normalized to UBI-3 (bars represent mean (±SEM), n ≥ 3, ns = not significant, ** = p < 0.01, scale bar = 10 μm).
Bacterial Culture and Labelling: Bacteria used were K. pneumoniae (ATCC BAA1706) ATCC, E. coli (ATCC 25922) ATCC, A. baumannii (J3433) Clinical Isolate, P. aeruginosa (J3284) Clinical Isolate, Methicillin Resistant S. aureus (MRSA) (ATCC25923) ATCC and Methicillin Sensitive S. aureus (MSSA) (ATCC 252) ATCC. All bacteria were grown on Lysogeny broth (LB) agar and from a single bacterial colony placed into 10ml of LB and incubated at 37°C for 16 hours in an orbital shaker.
Cultures were centrifuged at 4000rpm for 5 minutes and the pellet resuspended in 1ml phosphate buffered saline (PBS, Life Technologies). Following three further washes in PBS the cultures were reconstituted to 1 OD595 nm. Bacteria were counterstained with 5µM Syto 82 orange fluorescent nucleic acid stain (Invitrogen, CA, USA) in a shaking heat block at 37 °C for 20 minutes. For FCFM bacteria were stained with 1µM Calcein AM (Sigma, MO, USA) for 30 minutes at 37 °C. Counterstained bacteria were washed in PBS to remove excess dye. […]
Confocal Analysis and Fluorescence Quantification: 8-Well Lab-Tek II Confocal Chambers (VWR, PA, USA) were coated in fibronectin (for neutrophil experiments) or poly-d-lysine (for bacteria) at 37 °C for 20 minutes, then washed in PBS prior to bacterial innoculation. For co-culture assays, neutrophils were seeded on fibronectin coated wells at 1 x 10^5 neutrophils per well for 20 minutes and non-adherent neutrophils aspirated. Bacteria were added to each chamber to a final concentration of 0.5 OD595 nm with the desired final concentration of Smartprobe. A laser-scanning confocal imaging system (LSM510; Carl Zeiss, Jena, Germany), incorporating an upright Axioskop FS2 microscope (63× objective) was used for image acquisition and processing. Exposure to 488 nm light was limited to 5% of the maximum laser power in order to minimize toxicity. ‘Green’ fluorescence (for FAM and NBD) was excited with a dedicated 488 nm line and emitted light detected with meta detector (500-530 nM).
Syto nuclear and dyes were excited with a dedicated 543 nm line, and emitted light detected with meta detector (570-610 nM). Fields of view were chosen based on the counterstain and at least three fields of view were recorded for each condition. For affinity assays, following initial imaging, the fluid was aspirated and two gentle washes with PBS were performed. The chamber was re-imaged on confocal.
Analysis was with ImageJ (version 1.46r, National Institutes of Health, USA); the Syto channel was automatically thresholded (MaxEntropy, with a set threshold 0-47) and an ROI generated from this. The […]
mean fluorescence intensity on the probe channel within this ROI was quantified. Data presented represents the mean of three experiments, from each of which three separate fields of view were assessed. All experiments were performed at least three times unless otherwise stated and results expressed as mean ± SEM. Data was analysed by unpaired t-test and significance was determined as p<0.05 (GraphPad Prism version 5.01 for Windows, GraphPad Software, San Diego California USA).
Ex vivo Human Lung and FCFM Procedure: Human lung samples were obtained from patients undergoing surgical resection for lung carcinoma. All images were obtained on sections of normal lung […]

Row | Compound | bacterial labelling (fluorescence compared with UBI-3)
2 | CCCC[C@H](NC(=O)[C@H](CCCNC(=N)N)NC(=O)[C@H](CCCNC(=N)N)NC(=O)[C@H](CCCCN)NC(=O)[C@H](C)NC(=O)[C@H](CCCNC(=N)N)NC(=O)CNC(=O)[C@@H](NC(=O)[C@H](CCCCNc1ccc([N+](=O)[O-])c2nonc12)NC(=O)COCCOCCOC)[C@@H](C)O)C(=O)N[C@@H](CCC(N)=O)C(=O)N[C@@H](Cc1ccc(O)cc1)C(=O)N[C@@H](CC(N)=O)C(=O)N[C@@H](CCCNC(=N)N)C(=O)N[C@@H](CCCNC(=N)N)C(=O)NCCOCCOCC(=O)NCCOCCOCC(N)=O [UBI-6] ({Decanoyl(3,6,9-trioxa)}-K(NBD)TGRAKRR[Nle]QYNRR[AEEA][AEEA]-NH2) | loss of labelling on bacteria; also recorded: loss of labelling efficacy
3 | CCCC[C@H](NC(=O)[C@H](CCCNC(=N)N)NC(=O)[C@H](CCCNC(=N)N)NC(=O)[C@H](CCCCN)NC(=O)[C@H](C)NC(=O)[C@H](CCCNC(=N)N)NC(=O)CNC(=O)[C@@H](NC(=O)CCCCCNc1ccc([N+](=O)[O-])c2nonc12)[C@@H](C)O)C(=O)N[C@@H](CCC(N)=O)C(=O)N[C@@H](Cc1ccc(O)cc1)C(=O)N[C@@H](CC(N)=O)C(=O)N[C@@H](CCCNC(=N)N)C(=O)N[C@@H](CCCNC(=N)N)C(=O)NCCOCCOCC(=O)NCCOCCOCC(N)=O [UBI-7] ({NBD-Ahx}-TGRAKRR[Nle]QYNRR[AEEA][AEEA]-NH2) | loss of bacterial labelling; also recorded: loss of labelling efficacy
4 | CCCC[C@@H](NC(=O)[C@@H](CCCNC(=N)N)NC(=O)[C@@H](CCCNC(=N)N)NC(=O)[C@@H](CCCCN)NC(=O)[C@@H](C)NC(=O)[C@@H](CCCNC(=N)N)NC(=O)CNC(=O)[C@H](NC(=O)COCCOCCNc1ccc([N+](=O)[O-])c2nonc12)[C@H](C)O)C(=O)N[C@H](CCC(N)=O)C(=O)N[C@H](Cc1ccc(O)cc1)C(=O)N[C@H](CC(N)=O)C(=O)N[C@H](CCCNC(=N)N)C(=O)N[C@H](CCCNC(=N)N)C(=O)O [UBI-8] ({NBD-AEEA}-[dT]G[dR][dA][dK][dR][dR][dNle][dQ][dY][dN][dR][dR]-OH) | loss of labelling on bacteria; also recorded: loss of labelling efficacy
5 | CCCC[C@@H](NC(=O)[C@@H](CCC(N)=O)NC(=O)[C@@H](Cc1ccc(O)cc1)NC(=O)[C@@H](CC(N)=O)NC(=O)[C@@H](CCCNC(=N)N)NC(=O)[C@@H](CCCNC(=N)N)NC(=O)COCCOCCOC)C(=O)N[C@H](CCCNC(=N)N)C(=O)N[C@H](CCCNC(=N)N)C(=O)N[C@H](CCCCN)C(=O)N[C@H](C)C(=O)N[C@H](CCCNC(=N)N)C(=O)NCC(=O)N[C@@H](C(=O)N[C@@H](CCCCNc1ccc([N+](=O)[O-])c2nonc12)C(=O)O)[C@H](C)O [UBI-9] ({Decanoyl(3,6,9-trioxa)}-[dR][dR][dN][dY][dQ][dNle][dR][dR][dK][dA][dR]G[dT]K(NBD)-OH) | loss of labelling on bacteria; also recorded: loss of labelling efficacy

System: not listed separately
Assay: broncho-alveolar lavage fluid (BALF) retrieved from ventilated ICU patients with Acute Respiratory Distress Syndrome (ARDS); pooled samples from three patients
Conditions: human, up to 30min

Row | Compound | not cleaved | cleaved bond
6 | MeO-PEG- D- Arg- D- Arg- D- Asn- D- Tyr- D- Gln- D- Nle- D- Arg- D- Arg- D- Lys- D- Ala- D- Arg-Gly- D- Thr-Lys(NBD)-OH | Stable in ARDS BALF | 
7 | NBD-Ahx-Thr-Gly-Arg-Ala-Lys-Arg-Arg-Nle-Gln-Tyr-Asn-Arg-Arg-NH2 |  | ArgP8-ArgP7, major, <5 min; also recorded: ArgP2-ArgP1, major, <5 min
8 | NBD-Ahx-Thr-Gly-Arg-Ala-Lys-Arg-MeArg-Nle-Gln-Tyr-Asn-Arg-Arg-D-Phe-D-Val-NH2 | Stable in ARDS BALF | 
9 | NBD-Ahx-Thr-Gly-Arg-Ala-Lys-MeArg-MeArg-Nle-Gln-Tyr-Asn-MeArg-MeArg-NH2 | Stable in ARDS BALF | 
10 | NBD-Ahx-cyclo[Lys-Thr-Gly-Arg-Ala-Lys-Arg-Arg-Nle-Gln-Tyr-Asn-Arg-Arg-Gly] |  | Thr-Gly, first_seen, 10min; also recorded: Arg-Arg, major, 20min
11 | NBD-Ahx-cyclo[Lys-Thr-Gly-Arg-Ala-Lys-Arg-Arg-Nle-Gln-Tyr-Asn-Arg-MeArg-Gly] | stability in BALF for over 30 minutes | 
12 | NBD-PEG-D-Thr-Gly-D-Arg-D-Ala-D-Lys-D-Arg-D-Arg-D-Nle-D-Gln-D-Tyr-D-Asn-D-Arg-D-Arg-OH | Stable in ARDS BALF | 
